Experimental data as given in publication PMC5962403 (SLAS discovery : advancing life sciences R & D, 2018).

Experiments:
CBX7 ChD = biological target: T1, CBX7 ChD (Homo sapiens, UniProt O95931); format: binding; conditions: control ligands on 24 DNA constructs each, relative to nonligand
T1 sequence (O95931 11-69 limits assumed): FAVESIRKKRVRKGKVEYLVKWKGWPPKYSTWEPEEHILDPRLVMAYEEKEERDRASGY

CBX7 = conditions: cited from earlier work

| Substance | enrichment in model selection against CBX7 (in words) (CBX7 ChD) | selectivity to CBX7 over other CBX proteins and ChDs (CBX7) | Kd (CBX7; reported Kd for CBX7) [nM] |
| --- | --- | --- | --- |
| Ac-F-A-I-Kme3-S-140-mers [medium-affinity ligand] | moderately enriched |  |  |
| Bz-A-I-Kme3-S-140-mers [low-affinity ligand] | poorly enriched |  |  |
| UNC3866 |  | 6- to 18 fold | 97 |
